This is an account of results in patent US20050054013A1, “Methods and products for identifying modulators of P2X7 receptor activity, and their use in the treatment of skeletal disorders” (Pfizer Inc, priority 2001, published 2005).

One test concerns the target T1, P2X7 receptor (Mus musculus, UniProt Q9Z1M0).
T1 construct: endogenous in cells; host or cells: peritoneal macrophages isolated from wild-type animals
T1 sequence (Q9Z1M0 1-595): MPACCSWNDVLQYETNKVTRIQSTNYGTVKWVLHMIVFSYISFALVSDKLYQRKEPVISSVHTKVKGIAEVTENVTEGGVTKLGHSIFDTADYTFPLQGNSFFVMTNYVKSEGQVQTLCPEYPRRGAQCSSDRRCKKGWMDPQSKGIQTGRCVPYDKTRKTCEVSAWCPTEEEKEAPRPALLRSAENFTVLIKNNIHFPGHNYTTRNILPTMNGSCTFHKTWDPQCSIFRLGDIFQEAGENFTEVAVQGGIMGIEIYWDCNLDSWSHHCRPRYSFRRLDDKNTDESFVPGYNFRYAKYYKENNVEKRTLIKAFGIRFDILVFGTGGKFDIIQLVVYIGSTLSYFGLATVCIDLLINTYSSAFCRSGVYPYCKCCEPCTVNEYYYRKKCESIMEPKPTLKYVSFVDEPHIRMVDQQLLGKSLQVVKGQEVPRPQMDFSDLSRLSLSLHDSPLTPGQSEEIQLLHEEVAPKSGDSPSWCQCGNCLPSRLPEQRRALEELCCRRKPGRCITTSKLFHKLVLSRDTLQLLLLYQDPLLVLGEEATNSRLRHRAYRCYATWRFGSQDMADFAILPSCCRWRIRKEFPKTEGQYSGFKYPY
Nature of the test: P2X7 receptor-mediated YoPro Yellow uptake in peritoneal macrophages. The test is classed as cell-based. The following applies: peritoneal macrophages from wild-type animals, 5 mM ATP, extracellular YoPro Yellow. The procedure:
This increase in fluorescence results from internalization of the dye molecules followed by their binding to DNA; when bound to DNA, the fluorescence intensity increases.
When assaying P2X7 receptor function using isolated macrophages, the peritoneal macrophages are washed with isotonic medium (15 mM HEPES, pH 7.2, 135 mM NaCl, 5 mM KCl, […], […]) by centrifugation and the resulting cell pellet is suspended in isotonic medium to achieve a final cell concentration of about 1×10^6 cells/ml. Fifty μl of this cell suspension is placed into the wells of a plate (e.g., Microfluor “B” U-bottom plate, Dynatech, Chantilly, Va.), and 50 μl of a fluorescent dye (e.g., 2 μM YoPro Yellow, Molecular Probes, Eugene, Oreg.) dissolved in the isotonic medium is added to each well. Test compounds or control vehicles are added to the wells with or without the addition of […]. Fluorescence is monitored as a function of time at […]. For YoPro Yellow dye, excitation is at 450 nm and emission is measured at 530 nm. Test compounds which stimulate P2X7 receptor activity increase fluorescence as compared to control samples that lack test compound.

The next test relates to other P2X receptors. Particulars: cited from earlier work.
Another test deals with IL-6. Nature of the test: In vivo cytokine production: IL-6 in peritoneal lavage of LPS-primed mice by ELISA. Particulars: LPS-primed mice subsequently challenged with ATP; 4 hour time point. As for the experimental part:
Groups of mice are injected intraperitoneally (ip) with 1 μg of LPS. […] Samples of peritoneal lavages are spun down, and the supernatants are collected and tested for the presence of IL-1β and IL-6 using ELISAs (Amersham Life Sciences, Arlington Heights, Va. and Endogen, Woburn, Mass., respectively).
IL-1 signaling may lead to the production of other cytokines such as IL-6 (Allen et al. (2000), J. Exp. Med. 191:859-869). […] The animals are incubated for an additional period (e.g., 4 hours) and peritoneal lavages are collected several times during the course of the incubation and analyzed for cytokines by ELISA. […] By 4 hours, however, IL-6 levels recovered from the LPS-PBS treated animals returned to baseline.

Take `Nc1ncnc2c1ncn2[C@@H]1O[C@H](COP(=O)(O)OP(=O)(O)OP(=O)(O)O)[C@@H](O)[C@H]1O` [ATP, adenosine triphosphate]: the “fluorescence intensity (YoPro Yellow internalization)” value at P2X7 receptor is “time dependent increase in fluorescence intensity”. Also, the “ATP concentrations at which receptors activate” value in the test with other P2X receptors is “less than or equal to 100 μM”. In the test with IL-6, the “lavage fluid IL-6, peak value” was greater than 25 ng/mL.
